# In the METLIN SMRT retention time set (Domingo-Almenara et al. 2019):
# Assay: gradient 5% acetonitrile 3 min, to 50% in 2 min, to 85% in 15 min, held 3 min, 100 µL/min
# Conditions: column: Zorbax Extend-C18 2.1 x 50 mm; eluents: water / acetonitrile, 0.1% formic acid
# Procedure, shortened: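 Mixtures of ~100 pure standards were chromatographed on a Zorbax Extend-C18 column (2.1 × 50 mm, 1.8 μm) at 100 μL/min using water and acetonitrile, each with 0.1% formic acid. Detection used a quadrupole time-of-flight mass spectrometer in positive and negative ionization mode, and data collection spanned 3 months. Retention time was obtained from adduct peaks picked computationally and each checked manually.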
row,Compound,RP-LC retention time [s]
1,CCC(C)NC(=O)CSc1nc2nc(C)cc(C)n2n1 (stereo not drawn),650
2,O=C(Nc1nc2c(s1)CN(S(=O)(=O)C1CC1)CC2)c1cnn(-c2ccccc2)n1,855
3,O=C1OCC/C1=C\c1ccc2c(c1)OCO2,830
4,COC(=O)c1ccc(C(=O)NCC2(CO)CC2)cc1,611
5,CCOC(=O)c1c(S(=O)(=O)N2CCC(C(=O)NCCc3ccccc3)CC2)c(C)n(C)c1C,826
6,O=C(Nc1cccc(OCc2nnc(-c3ccc(Cl)cc3)o2)c1)c1ccoc1,970
7,COc1ccc(CC(=O)N2CCCC2c2c(C)noc2C)cc1OC (stereo not drawn),696
8,O=C(Nc1ccc(Br)cc1)C1CCCN(c2nccnc2Oc2ccccc2)C1 (stereo not drawn),1140
9,CCCCn1cc(S(=O)(=O)N2CCN(c3cccc(C)c3)CC2)c2cccnc21,1220
10,CCNC(=O)Nc1ccc2c(c1)CN(Cc1cn(C(C)C)c3ccc(OC)cc13)CCO2,726
11,CC1=NS(=O)(=O)N(C)C=C1C(=O)OCc1cccc(C)c1,967
12,CCCN(CCC#N)C(=O)CN1CC2=C(C1=O)C(c1ccccc1Cl)NC(=O)N2C (stereo not drawn),634
13,CN1CCN(CCCNC(=O)CCC(=O)N2CCCn3nc(-c4cn(C)c5ccccc45)cc32)CC1,583
14,Cc1ccc(C)c(NC(=O)Cn2c(N3CCOCC3)nc(C)cc2=O)c1,770
15,NC(=O)C1CCN(C(=O)c2ccc(F)cc2)CC1,589
16,CC1(C(=O)NCc2ccccc2)CCCN(C(=O)NC2CCCCC2)C1 (stereo not drawn),857
17,CC(C)n1cnc(S(=O)(=O)N2CCC(C(=O)Nc3ccc(Br)cc3F)CC2)c1,834
18,O=C(NCc1ccccc1)Nc1ccc2nc(-c3ccccc3)cc(N3CCOCC3)c2c1,709
19,CCOC(=O)CNC(=O)N1CCN(c2ccc(=O)n(-c3ccc(C)cc3)n2)CC1,683
20,Cc1cccc(-c2noc(C3CCCN3S(=O)(=O)c3ccc(Br)cc3)n2)c1 (stereo not drawn),1230
21,Cc1ccc(OCC(=O)Nc2ccc(-c3nc(-c4cc(C)ccc4C)co3)cc2)cc1,888
22,CCN1C(=O)COc2cc(-c3noc(C(=O)NCCC(C)C)n3)ccc21,979

row,Compound,RP-LC retention time [s]
1,Cc1oc(-c2[nH]ncc2C(=O)N(C)C)cc1S(=O)(=O)NCc1cccnc1,559
2,CN(C)C(=O)c1csc(S(=O)(=O)N2CCC(C(=O)Nc3ccc(F)cc3Cl)CC2)c1,792
3,c1ccc(-c2cn3ccccc3n2)cc1,644
4,Cn1ccc(CN2CCc3ccccc32)cc1=O,788
5,CN1C(=O)c2cc(S(=O)(=O)Nc3ccc(F)cc3Cl)ccc2Oc2cccnc21,943
6,O=C(CN1CCN(Cc2ccc(F)cc2Cl)C1=O)N1CCN(c2ccc(F)cc2)CC1,908
7,Cn1c(=O)c(N2CCCC(C(=O)NCCCN3CCC(N4CCCCC4)CC3)C2)nc2cccnc21 (stereo not drawn),568
8,Cc1nc(-c2cn(C)c3ncccc23)sc1C(=O)NCc1ccc(F)cc1F,887
9,CCN(C(=O)Cn1c(C(C)NC(=O)c2ccco2)nc2ccccc21)c1ccccc1 (stereo not drawn),704
10,O=C(Cn1c(=O)oc2ccccc21)N1CCCC(COCc2ccccc2)C1 (stereo not drawn),897
11,COc1ccccc1CC(=O)N1CCCn2nc(-c3ccc(Cl)cc3)cc2C1,1010
12,COC(=O)c1cnc2nc(C)ccc2c1Nc1cc(Cl)ccc1C,716
13,O=C(NCc1ccccc1Cl)c1c[nH]c2ncccc12,708
14,CCOc1nc2c(c(C)nn2-c2cccc(C)c2)c(C)c1CCC(=O)NCCc1c[nH]c2ccccc12,1260
15,O=C(NCCCN1CCCCC1)C1CCN(c2cnn(Cc3ccccc3)c(=O)c2)CC1,606
16,CC(C)CNC(=O)NC(C(=O)N1CCc2ccccc21)c1ccccc1 (stereo not drawn),864
17,CC(C)N1CCN(C(=O)CN2CCN(Cc3ccccc3)C2=O)CC1,565
18,Cc1nc2cccnc2n1CC1CCCN(C(=O)Nc2ccc3c(c2)OCCO3)C1 (stereo not drawn),614
19,O=C(NC1CCN(Cc2ccccc2)CC1)C1CC(=O)N(c2n[nH]c3cccc(F)c23)C1 (stereo not drawn),591
20,COc1cccc(NC(=O)C2CCN(S(=O)(=O)c3cn(C)cn3)CC2)c1,656
21,CCOc1ccc(-c2nnc(SCC(=O)N3c4ccccc4CC3C)o2)cc1 (stereo not drawn),1110
22,Cc1cccc(-c2ccc(N3CCCC(C(=O)NC4CCCC4)C3)nn2)c1 (stereo not drawn),708

row,Compound,RP-LC retention time [s]
1,O=C(OCCc1ccccn1)c1cn(-c2ccccc2)c(=O)c2ccccc12,696
2,O=S(=O)(Nc1ccc(Cn2cncn2)cc1)c1ccc(Cl)cc1,744
3,CCCN(C(=O)Cc1c(C(=O)O)c(C)cn1CC)c1cccc(Cl)c1,767
4,CN(C)c1ccc(CNC(=O)c2nnc(-c3ccc(S(=O)(=O)N4CCCCC4)cc3)o2)cc1,754
5,CCOC(=O)C1CCN(c2ncc(S(=O)(=O)c3ccc(Cl)cc3)c(N)n2)CC1,1030
6,O=C(CCc1ccccc1)N1CCN(c2cc(-c3cccs3)[nH]n2)CC1,808
7,CC1=C(C(=O)OC(C)C)C(c2cccc(Oc3ccccc3)c2)NC(=O)N1 (stereo not drawn),938
8,COc1cccc(N2CCN(c3ccnc(SCC(=O)Nc4cccc(Cl)c4)n3)CC2)c1,827
9,O=S(=O)(c1cc(-c2nnc(C3CCC3)o2)co1)N1CCN(c2ccccc2F)CC1,1070
10,Cc1ccc(CN2CCN(C3CCN(C(=O)Nc4cccc(C)c4)CC3)C(=O)C2=O)cc1,740
11,COc1ccc(-c2nnc(-c3ccc(C)c(S(=O)(=O)N4CCOCC4)c3)o2)cc1OC,844
12,O=C(Cn1cccc(-c2nc(-c3ccccc3)no2)c1=O)Nc1cccc(Br)c1,940
13,CSc1cccc(NC(=O)Cn2c(-c3ccccc3)nc(C)cc2=O)c1,1050
14,Cc1noc(C)c1CCNC(=O)c1cc(-c2cccnc2)nc2ccccc12,652
15,O=C(Cc1ccccc1Cl)NCC1CCN(C(=O)c2ccccc2F)CC1,722
16,O=C(CN1C(=O)C2CCCCN2c2ccc(C(=O)N3CCOCC3)cc21)NCc1ccc(F)cc1 (stereo not drawn),734
17,Cn1nc(-c2nnc(-c3ccc(F)cc3)o2)c2c1CCN(S(=O)(=O)c1cccc3cccnc13)C2,882
18,Cc1cccc(NC(=O)Cn2c(=O)n(-c3ccc(F)cc3)c3ncccc32)c1,876
19,CCOc1ccc(-n2c(=O)c3sccc3n(Cc3nc(-c4ccccc4)no3)c2=O)cc1,1010
20,CCOC(=O)c1nc(NCCCN2CCC(Cc3ccccc3)CC2)c2ccccc2n1,690
21,CCOC(=O)c1ccc(NC(=O)c2cccc([N+](=O)[O-])c2)cc1,890
22,CCCNC(=O)c1cc(-c2ccncc2)cn1Cc1ccc(C)cc1,696

row,Compound,RP-LC retention time [s]
1,CCCCC(=O)Nc1ccc(-c2cn3ccc(C)nc3n2)cc1,612
2,O=C(C1=NNc2cc(Cl)ccc2S1(=O)=O)N1CCOCC1,664
3,CC(C)c1ccc(-c2cc3c4nn(CC(=O)N5CCCC5)c(=O)n4ccn3n2)cc1,916
4,O=C(Nc1cc(F)c(F)c(F)c1)N1C[C@H]2C[C@H](C1)[C@H]1CCCC(=O)N1C2,717
5,CCOC(=O)c1c(C)oc2nc(C)nc(NCc3ccc(CC)cc3)c12,1370
6,Cc1ccc(-n2nc(C(=O)N3CCN(c4ncccn4)CC3)c3ncn(C)c(=O)c32)cc1,726
7,Cc1cccc(CNC(=O)C2CCCN(C(=O)C3Sc4ccccc4NC3=O)C2)c1 (stereo not drawn),762
8,c1ccc2cc(CC3=NCCN3)ccc2c1,649
9,O=C(NCc1cccc(F)c1)c1ccc2c(c1)Sc1ncccc1C(=O)N2C1CC1,823
10,CN(C)C[C@@H]1CN(C)C[C@H]1NC(=O)NCc1ccc(OC(F)(F)F)cc1,588
11,COc1ccc(-c2csc(Nc3ccc(S(=O)(=O)Nc4nc(C)cc(C)n4)cc3)n2)cc1C,966
12,Cc1ccc(-c2noc(Cc3nc(-c4ccc(C)cc4C)cs3)n2)cc1,1190
13,CCN1C(=O)c2ccccc2Oc2ccc(C(=O)NCc3ccc(C)o3)cc21,910
14,CCOc1ccc(-c2noc(Cn3ccn4nc(-c5ccccc5C)cc4c3=O)n2)cc1,1160
15,CC(C)NC(=O)CCc1c(-c2ccccc2)nc2ccccn12,595
16,COC(=O)c1ccc(NC(=O)CSc2ncnc3c2nnn3C)cc1,683
17,O=c1c2sccc2n(Cc2nc(-c3ccccc3Cl)no2)c(=O)n1Cc1ccc(F)cc1,1110
18,CS(=O)(=O)N1CCC(F)(c2nc(-c3ccccc3)no2)CC1,913
19,CCN1C(=O)CN(C(=O)C2CC2)CC12CCOCC2,584
20,O=C(Cn1cccc1-c1nnc(C2CC2)o1)NCc1ccc(Cl)cc1,825
21,Cc1cc(C)cc(NC(=O)Cn2nc(N3CCCCCC3)c3ccccc3c2=O)c1,1110
22,O=C(NCCc1csc(-c2ccc(F)cc2)n1)c1cccs1,913
